# Article PMC11436758, “Computer-aided drug design to generate a unique antibiotic family” (Nature Communications, 2024)
# Values joined by “and” are separate entries in the source; they are usually repeats but may differ in a detail not shown here. Identical values can stand only once. “Also recorded” adds a separate entry of the source.
# Legend:
# [1] = test system: P. aeruginosa ATCC 27853; assay: MIC alone and MIC of colistin in combination with DNM compounds; assay type: cell-based; details: compound alone, bracket after colistin value is a range (0.25-4)
# Protocol: (§1) The medium employed for the assay was Mueller Hinton II Broth (MHB II; Becton-Dickinson, Sparks, MD, USA). Agar plates used for the organisms were trypticase soy agar plus 5% sheep blood (BD; Sparks, MD, USA). MIC assay plates were prepared using the CLSI broth microdilution procedure. Automated liquid handlers (Multidrop 384, Biomek 2000 and Biomek FX) were used to conduct serial dilutions and liquid transfers. A standardized inoculum of each organism was prepared per CLSI methods. Suspensions were prepared to equal a 0.5 McFarland standard, followed by a 1:20 dilution in test media. The inocula were dispensed into sterile reservoirs divided by length (Beckman Colter) and the Biomek 2000 was used to inoculate the plates. Daughter plates were placed on the Biomek 2000 work surface in reverse orientation so that inoculation took place from low to high drug concentration. The Biomek 2000 delivered 10 μL of the diluted suspension into each well. These inoculations yielded a final cell concentration in the daughter plates of ~5 × 10^5 colony-forming units/mL in each well. The wells of the daughter plates ultimately contained 185 μL of broth, 5 μL of drug solution, and 10 μL of bacterial inoculum. Plates were covered with a sterile lid on the top plate, placed in plastic bags, and incubated at 35 °C for ~18 h. The microplates were viewed from the bottom using a plate viewer and the MIC was read. The MIC was recorded as the lowest concentration of drug that inhibited visible growth of the organism. Uninoculated solubility control plates were also observed for evidence of drug precipitation.
# (§2) Compound K. pneumoniae A. baumannii E. coli P. aeruginosa […]
# (§3) Supplementary Table 3. Minimum inhibitory concentration (MIC; µg/ml) of DNM
# (§4) compounds that show potential synergy in combination with colistin. […]
# [2] = test system: E. coli ATCC 25922; assay: as above; assay type: cell-based; details: compound alone, bracket after colistin value is a range (0.25-2)
# Protocol: as §1, §2, §3, §4
# [3] = test system: A. baumannii ATCC 19606; assay: as above; assay type: cell-based; details: compound alone
# Protocol: as §1, §2, §3, §4
# [4] = test system: K. pneumoniae MMX8390; assay: as above; assay type: cell-based; details: compound alone
# Protocol: as §1, §2, §3, §4
# [5] = test system: 102 ATCC strains and clinical isolates of Staphylococcus, Streptomyces, and Enterococcus; assay: MIC panel summary over all strains; assay type: cell-based; details: of 102 strains
# Protocol: We also sought to determine if DNM0547 was bacteriostatic or bactericidal. Time kill experiments were carried out using increasing doses of DNM0547 against two different strains of MRSA.
# as §1, with “organism.” for “organism. Uninoculated solubility control plates were also observed for evidence of drug precipitation.”
# [6] = test system: MRSA (ATCC 33591); assay: Rabbit ischemic ear wound model of infection by MRSA, topical treatment; assay type: in vivo, New Zealand White rabbits; details: for % wound closure / wound size (mean) / Wound size (mm2): Fig 2c
# Protocol: New Zealand White rabbits from Charles River were employed for this study. Both male and female rabbits were used; sample size prevented disaggregation of data by sex. Investigators were blinded to group allocation, data collection, and data analysis. Food and water were given ad libidum and animals were acclimatized for 7 days with photoperiods of alternating 12 h light and dark at 21 °C in relative humidity of 40–50%. The formulation for delivery of DNM compounds was Glaxal base (WellSpring Pharmaceutical Canada Corp., Oakville, Canada). Formulation was performed by dissolving compound in Glaxal base to give final concentrations of 1% or 2% DNM compound (w/v). The analgesic (Buprenex 0.02 mg/kg sc) and anesthesia (isoflurane (0.5–5% with oxygen carrier 0.5–2 L/min) were used as required during procedures. An ischemia wound healing model was conducted surgically. Each wound was inoculated with 50 μl of 2 × 10^7 CFU/mL MRSA (ATCC #33591) and dressed. After 1 day, wounds were treated with either 50 μl control cream containing vehicle or 50 μl cream containing compound daily. Wounds were assessed and observations recorded using the Draize scoring system. Digital photographs of each wound were obtained and documented.
# [7] = test system: S. aureus (MSSA); assay: MIC, clinical and laboratory strains; assay type: cell-based
# Protocol: as §1, with “organism.” for “organism. Uninoculated solubility control plates were also observed for evidence of drug precipitation.”
# [8] = test system: S. aureus (MRSA); assay: MIC, clinical and laboratory strains; assay type: cell-based
# Protocol: as §1, with “organism.” for “organism. Uninoculated solubility control plates were also observed for evidence of drug precipitation.”
# [9] = test system: S. aureus (VISA); assay: MIC, clinical and laboratory strains; assay type: cell-based
# Protocol: as §1, with “organism.” for “organism. Uninoculated solubility control plates were also observed for evidence of drug precipitation.”
# [10] = Histopathology (H&E) of treated rabbit ischemic ear wounds, dermal toxicity; details: Suppl Fig 7, score per wound
# Protocol: Wounds were excised, fixed, and routine H&E staining was performed. Wounds were examined for pathology and scored in a blinded manner.
# Post-wounding, under anesthesia, animals were euthanized with an intravenous injection of Beuthanasia-D at a dosage of 150 mg/kg of body weight. Specimens including the entire wound, along with ~2–3 mm of the normal unwounded skin margins were harvested. Each ear wound specimen was sectioned into halves. For one half of the wound, the wound was placed into a container with 10% neutral buffered formalin and processed for routine histological evaluation. Wounds were scored on a scale of 0–4 at the wound site for erythema, edema, inflammation, granulation, angiogenesis, and epithelialization. Wounds were characterized in a blinded manner by a board-certified member of the College of American Pathologists.
compound,measurement,setting,value
CC(C)c1cc(Cl)ccc1-c1cc(C(N)=O)sc1-c1ccc(Cl)cc1C(C)C [DNM0650],MIC,[1],> 64 µg/mL
same,MIC,[2],> 64 µg/mL
same,MIC,[3],> 64 µg/mL
same,MIC,[4],> 64 µg/mL
Cc1cc(Cl)ccc1-c1cc(S(N)(=O)=O)sc1-c1ccc(Cl)cc1C [DNM0658],MIC,[1],> 64 µg/mL
same,MIC,[2],> 64 µg/mL
same,MIC,[3],> 64 µg/mL
same,MIC,[4],> 64 µg/mL
C/C(=C\C(=O)OCCCCCCCCC(=O)O)C[C@@H]1OC[C@H](C[C@@H]2O[C@H]2[C@@H](C)[C@H](C)O)[C@@H](O)[C@H]1O [mupirocin],number of strains tested with MIC not ≤ 2 μg/mL,[5],26
same,CFUs,"[6]; Fig 2b, individual wounds",0 CFUs (6×) and 4120 CFUs
same,% wound closure,[6]; Day 1,0%
same,wound size (mean),[6]; Day 1,34.3 mm2
same,% wound closure,[6]; Day 3,3.64%
same,wound size (mean),[6]; Day 3,33.056 mm2
same,wound size (mean),[6]; Day 5,31.872 mm2
same,% wound closure,[6]; Day 7,10.3%
same,wound size (mean),[6]; Day 7,30.776 mm2
same,% wound closure,[6]; Day 10,22.68%
same,wound size (mean),[6]; Day 10,26.526 mm2
same,% wound closure,[6]; Day 14,43.29%
same,wound size (mean),[6]; Day 14,19.45 mm2
same,% wound closure,[6]; Day 18,53.8%
same,wound size (mean),[6]; Day 18,15.838 mm2
same,Wound size (mm2),"[6]; individual wounds, Day 1",36.53 mm2 and 30.25 mm2 and 32.45 mm2 and 37.03 mm2 and 35.24 mm2
same,Wound size (mm2),"[6]; individual wounds, Day 3",33.98 mm2 and 27.23 mm2 and 29.57 mm2 and 36.33 mm2 and 38.17 mm2
same,Wound size (mm2),"[6]; individual wounds, Day 5",33.31 mm2 and 25.96 mm2 and 29.21 mm2 and 35.69 mm2 and 35.19 mm2
same,Wound size (mm2),"[6]; individual wounds, Day 7",31.43 mm2 and 25.29 mm2 and 28.29 mm2 and 34.94 mm2 and 33.93 mm2
same,Wound size (mm2),"[6]; individual wounds, Day 10",30.25 mm2 and 23.34 mm2 and 26.6 mm2 and 26.26 mm2 and 26.18 mm2
same,Wound size (mm2),"[6]; individual wounds, Day 14",23.68 mm2 and 17.17 mm2 and 19.28 mm2 and 18.84 mm2 and 18.28 mm2
same,Wound size (mm2),"[6]; individual wounds, Day 18",20.63 mm2 and 12.49 mm2 and 12.8 mm2 and 15.19 mm2 and 18.08 mm2
same,wound healing compared with control,[6]; topical 2%,did not alter wound healing from control; also recorded: not statistically significant
same,MIC,[7]; S. aureus (MSSA) 2127,> 16 µg/mL
same,MIC,[7]; S. aureus (MSSA) 6167,1 µg/mL
same,MIC,[7]; S. aureus (MSSA) 6168,2 µg/mL
same,MIC,[7]; S. aureus (MSSA) 6170,2 µg/mL
same,MIC,[7]; S. aureus (MSSA) 6316,2 µg/mL
same,MIC,[7]; S. aureus (MSSA) 6317,1 µg/mL
same,MIC,[7]; S. aureus (MSSA) 6318,2 µg/mL
same,MIC,[7]; S. aureus (MSSA) 6499,1 µg/mL
same,MIC,[7]; S. aureus (MSSA) 6500,1 µg/mL
same,MIC,[7]; S. aureus (MSSA) 6502,1 µg/mL
same,MIC,[8]; S. aureus (MRSA) 2167,0.12 µg/mL
same,MIC,[8]; S. aureus (MRSA) 2168,0.25 µg/mL
same,MIC,[8]; S. aureus (MRSA) 2169,0.25 µg/mL
same,MIC,[8]; S. aureus (MRSA) 2170,0.25 µg/mL
same,MIC,[8]; S. aureus (MRSA) 2171,0.25 µg/mL
same,MIC,[8]; S. aureus (MRSA) 2293,0.25 µg/mL
same,MIC,[8]; S. aureus (MRSA) 2294,0.25 µg/mL
same,MIC,[8]; S. aureus (MRSA) 2295,0.25 µg/mL
same,MIC,[8]; S. aureus (MRSA) 2296,0.25 µg/mL
same,MIC,[8]; S. aureus (MRSA) 2297,0.25 µg/mL
same,MIC,[8]; S. aureus (MRSA) 3880,> 16 µg/mL
same,MIC,[8]; S. aureus (MRSA) 5373,1 µg/mL
same,MIC,[8]; S. aureus (MRSA) 5666,1 µg/mL
same,MIC,[8]; S. aureus (MRSA) 5702,1 µg/mL
same,MIC,[8]; S. aureus (MRSA) 5999,1 µg/mL
same,MIC,[8]; S. aureus (MRSA) 6165,1 µg/mL
same,MIC,[8]; S. aureus (MRSA) 6169,0.5 µg/mL
same,MIC,[8]; S. aureus (MRSA) 6174,1 µg/mL
same,MIC,[8]; S. aureus (MRSA) 6311,1 µg/mL
same,MIC,[8]; S. aureus (MRSA) 6312,1 µg/mL
same,MIC,[8]; S. aureus (MRSA) 6313,1 µg/mL
same,MIC,[8]; S. aureus (MRSA) 6315,1 µg/mL
same,MIC,[8]; S. aureus (MRSA) 6320,1 µg/mL
same,MIC,[8]; S. aureus (MRSA) 6498,1 µg/mL
same,MIC,[8]; S. aureus (MRSA) 6501,1 µg/mL
same,MIC,[8]; S. aureus (MRSA) 6505,1 µg/mL
same,MIC,[8]; S. aureus (MRSA) 6506,1 µg/mL
same,MIC,[8]; S. aureus (MRSA) NRS382/2119,1 µg/mL
same,MIC,[8]; S. aureus (MRSA) NRS383/2120,> 16 µg/mL
same,MIC,[8]; S. aureus (MRSA) NRS384/2011,1 µg/mL
same,MIC,[9]; S. aureus (VISA) 1724,0.25 µg/mL
same,MIC,[9]; S. aureus (VISA) 2012,1 µg/mL
same,MIC,[9]; S. aureus (VISA) 2013,0.25 µg/mL
same,MIC,[9]; S. aureus (VISA) 2014,0.5 µg/mL
same,MIC,[9]; S. aureus (VISA) 2015,0.06 µg/mL
same,MIC,[9]; S. aureus (VISA) 2016,0.25 µg/mL
same,MIC,[9]; S. aureus (VISA) 2017,0.5 µg/mL
same,MIC,[9]; S. aureus (VISA) 2018,0.12 µg/mL
same,MIC,[9]; S. aureus (VISA) 2019,4 µg/mL
same,MIC,[9]; S. aureus (VISA) 2123,0.25 µg/mL
same,MIC,[9]; S. aureus (VISA) NRS1/1723,0.25 µg/mL
same,Edema,[10],2
same,Erythema,[10],2
same,Inflammation,[10],3 and 4
colistin [reference compound],MIC,[1],0.25 µg/mL
same,MIC,[2],0.25 µg/mL
same,MIC,[3],0.25 µg/mL
same,MIC,[4],16 µg/mL
